Source: patent US11324748B2, “Vasodilators for treatment of heart failure” (NORTHEAST OHIO MEDICAL UNIVERSITY, priority 2017, dated 2022)
Counter-ions that a name gives are not always drawn.

Legend:
[1] = test system: mice with heart failure (HFrEF); experiment: Treadmill exercise time and whole body oxygen consumption in mice with heart failure, FIG. 9
[2] = test system: heart failure induced by TAC (transaortic constriction); details: TAC mice, treatment started at week 5; FIG. 7
Takotsubo Syndrome = Takotsubo Syndrome produced by TAC, ventricular function, FIG. 11; type: in vivo, mice; details: 4 weeks, 2 weeks of treatment
[3] = test system: heart failure (HF) induced by transaortic constriction (TAC); experiment: Transaortic constriction (TAC) heart failure in mice, echocardiography; chromonar or vehicle from end of week 13; type: in vivo
Text: Ejection fraction is the percentage of blood in the left ventricular chamber that the heart ejects per beat. Under normal conditions, the heart will eject 60-70% of left ventricular volume with each contraction, but the failing heart ejects considerably less. After the control measurements to establish baseline % EF, mice underwent surgery to constrict the aortic artery. This procedure, termed transaortic constriction (TAC), causes the heart to pump against a high blood pressure, which causes it to fail. […] At the end of the 13th week, mice were either treated with chromonar (as continuous infusion) or a vehicle (that the chromonar was dissolved in).
Another way of assessing the effectiveness of a therapy in heart failure is to determine how much volume is in the left ventricle before it begins to contract (termed diastolic volume). When contractile function of the heart declines, this volume progressively increases. This volume is important for a number of reasons. First, it is directly related to energy consumption of the heart (as the volume increases energy consumption is increased). Second, if this volume becomes too large, the heart muscle can be overstretched and will contract even more poorly—this is referred to as decompensated heart failure. Third, as the diastolic volume increases pressures and volumes “upstream” in the atrium and pulmonary vessels will also increase. […]

[4] = test system: myocardial blood flow in the failing heart; experiment: Myocardial blood flow by myocardial contrast echocardiography during norepinephrine cardiac stress test in HF mice; type: in vivo; details: FIG. 2 right
Experimental: After the control measurements to establish baseline % EF, mice underwent surgery to constrict the aortic artery. This procedure, termed transaortic constriction (TAC), causes the heart to pump against a high blood pressure, which causes it to fail. […] At the end of the 13th week, mice were either treated with chromonar (as continuous infusion) or a vehicle (that the chromonar was dissolved in).
Myocardial contrast echocardiography (MCE) was used to measure myocardial blood flow in both groups of mice. […] Mice were determined to be in HF when EF<40%). After the development of failure, myocardial blood flow was measured during a cardiac stress test produced by infusion of norepinephrine to increase myocardial metabolic demands. A plot of cardiac work vs MBF was made for the sham mice and for those in HF. To estimate metabolic demands, the index wall stress rate product (WSRP) was developed.

## CC(C)NCC(O)COc1cccc2ccccc12 (stereo not shown) [propranolol]
[1]
  total exercise time on a treadmill: about 45 minutes
[1]; within 5 minutes of exercise
  whole body oxygen consumption: lower oxygen consumption than the chromonar treated group
[2]
  cardiac function (EF %): continued to decrease

## CCOC(=O)COc1ccc2c(C)c(CCN(CC)CC)c(=O)oc2c1 [chromonar, 14.3-(beta-Diethylaminoethyl)-4-methyl-7-(carbethoxymethoxy)-coumarin hydrochloride]
[1]
  total exercise time on a treadmill: ~70 min
[2]
  cardiac function (EF %): improved dramatically
Takotsubo Syndrome
  ventricular function (EF %): improved ventricular function greatly
[3]; treated at end of 13th week, continuous infusion, FIG. 2 left
  cardiac function (ejection fraction, % EF): restored cardiac function—nearly back to the control levels
[3]; treatment at end of week 13, FIG. 3
  Left Ventricular Diastolic Volume: diastolic volumes decreased
[4]; failing heart after chromonar
  relationship between MBF and cardiac work (WSRP): reconnects the relationship between work and flow in the heart
[4]; failing heart, during changes in cardiac work (WSRP)
  myocardial blood flow (MBF): flow is higher
